In brackets after ≈: the same amount, converted by molar mass. Like-named read-outs stand apart in the source and are kept apart here.
Columns and labels:
Proteus vulgaris OXK US = assay: MIC against Proteus vulgaris OXK US; type: cell-based; settings: Proteus vulgaris OXK US; read-out: MIC
Text: (§1) Now, for illustrating the excellent pharmacological effects of the compounds of this invention, the values of MIC (γ/ml) of the compounds against various bacteria are shown in the following table, the compounds of this invention are shown by example numbers.
1: Proteus vulgaris OXK US

proteus vulgaris OX 19US = assay: MIC against proteus vulgaris OX 19US; type: cell-based; settings: OX19US
Text: as §1
2. proteus vulgaris OX 19US

[1] = test system: proteus mirabilis IFM OM-19; assay: MIC against proteus mirabilis IFM OM-19; type: cell-based; settings: IFMOM19
Text: as §1
3. proteus mirabilis IFM OM-19

[2] = test system: pseudomonas aeruginosa ATCC 8689; assay: MIC against pseudomonas aeruginosa ATCC 8689; type: cell-based; settings: ATCC8689
Text: as §1
4: pseudomonas aeruginosa ATCC 8689

[3] = test system: pseudomonas aeruginosa 99 (Gentamycin resistant); assay: MIC against pseudomonas aeruginosa 99 (Gentamycin resistant); type: cell-based
Text: as §1
5: pseudomonas aeruginosa 99 (Gentamycin resistant)

[4] = test system: Pseudomonas ovalis IAM 1002; assay: MIC against Pseudomonas ovalis IAM 1002; type: cell-based; settings: Pseudomonas putida, IAM1002
Text: as §1
6: Pseudomonas ovalis IAM 1002

[5] = test system: escherichia coli Kauffman 0-1; assay: MIC against escherichia coli Kauffman 0-1; type: cell-based
Text: as §1
7: escherichia coli Kauffman 0-1

[6] = test system: Klebsiella pneumoniae ATCC 10031; assay: MIC against Klebsiella pneumoniae ATCC 10031; type: cell-based; settings: ATCC10031
Text: as §1
8: Klebsiella pneumoniae ATCC 10031

salmonella typhi H901W = assay: microbe, parasite or virus in culture; type: cell-based; settings: Salmonella enterica
salmonella enteritidis = assay: MIC against salmonella enteritidis; type: cell-based; settings: Salmonella enterica; salmonella enteritidis; read-out: MIC
Text: as §1
10: salmonella enteritidis

[7] = test system: Shigella flexnori 2a 1675; assay: MIC against Shigella flexnori 2a 1675; type: cell-based; settings: 2A1675
Text: as §1

Shigella sonnei II 37148 = assay: MIC against Shigella sonnei II 37148; type: cell-based; settings: II37148
Text: as §1

[8] = test system: bacillus megatherium 10778; assay: MIC against bacillus megatherium 10778; type: cell-based; settings: bacillus megatherium 10778; read-out: MIC
Text: as §1

[9] = test system: Bacillus subtilis ATCC 6633; assay: MIC against Bacillus subtilis ATCC 6633; type: cell-based; settings: ATCC6633; Bacillus subtilis ATCC 6633; read-out: MIC
Text: as §1
14: Bacillus subtilis ATCC 6633

[10] = test system: micrococcus flavus ATCC 10240; assay: MIC against micrococcus flavus ATCC 10240; type: cell-based; settings: ATCC10240; micrococcus flavus ATCC 10240; read-out: MIC
Text: as §1

[11] = test system: staphylococcus aureus 209P; assay: MIC against staphylococcus aureus 209P; type: cell-based; settings: read-out: MIC
Text: as §1
16: staphylococcus aureus 209P

[12] = test system: staphylococcus Shimanishi; assay: MIC against staphylococcus Shimanishi; type: cell-based
Text: as §1
17. staphylococcus Shimanishi

Staphylococcus Onuma = assay: MIC against Staphylococcus Onuma; type: cell-based
Text: as §1

[13] = water solubility, naked-eye observation of solutions; type: physicochemical
Text: Then, the experimental results showing the excellent water solubility of the compounds of this invention are illustrated in the following table, the results being the observation results by the naked eyes of the solutions thereof in each concentration as shown in the table.

[14] = proteus vulgaris OX 19US, read-out: MIC
[15] = escherichia coli Kauffman 0-1, read-out: MIC
[16] = Klebsiella pneumoniae ATCC 10031, read-out: MIC
[17] = staphylococcus Shimanishi, read-out: MIC
[18] = Staphylococcus Onuma, read-out: MIC

Row | Compound | MIC (Proteus vulgaris OXK US) [µg/mL] | MIC (proteus vulgaris OX 19US; [14]) [µg/mL] | MIC [1] [µg/mL] | MIC ([2]; Pseudomonas aeruginosa) [µg/mL] | MIC ([3]; Pseudomonas aeruginosa) [µg/mL] | MIC [4] [µg/mL] | MIC [5, 15] [µg/mL] | MIC [6, 16] [µg/mL] | MIC (salmonella typhi H901W) [µg/mL] | MIC (salmonella enteritidis) [µg/mL] | MIC [7] [µg/mL] | MIC (Shigella sonnei II 37148) [µg/mL] | MIC [8] [µg/mL] | MIC [9] [µg/mL] | MIC [10] [µg/mL] | MIC [11] [µg/mL] | MIC [12, 17] [µg/mL] | MIC (Staphylococcus Onuma; [18]) [µg/mL] | water solubility (appearance of solution by the naked eyes) ([13]; concentration 1%) | water solubility (appearance of solution by the naked eyes) ([13]; concentration 5%) | other results
1 | Cc1nc(S)cc(SCC2=C(C(=O)O)N3C(=O)[C@@H](NC(=O)[C@H](NC(=O)c4cnccc4O)c4ccccc4)[C@H]3SC2)n1 [Example 2, 7-[D-α-(4-hydroxynicotinoylamido)-α-phenylacetamido]-3-(2-methyl-4-mercaptopyrimidin-6-yl)thiomethyl-Δ ^3-cephem-4-carboxylicacid] | 0.19 (≈ 0.304 µM) | 1.56 (≈ 2.5 µM) | 0.39 (≈ 0.624 µM) | 12.5 (≈ 20 µM) | 12.5 (≈ 20 µM) | 12.5 (≈ 20 µM) | 6.25 (≈ 10 µM) | 3.13 (≈ 5.01 µM) | 0.19 (≈ 0.304 µM) | 0.19 (≈ 0.304 µM) | 12.5 (≈ 20 µM) | 12.5 (≈ 20 µM) | 0.19 (≈ 0.304 µM) | 0.39 (≈ 0.624 µM) | 3.13 (≈ 5.01 µM) | 0.39 (≈ 0.624 µM) | 3.13 (≈ 5.01 µM) | 6.25 (≈ 10 µM) | clear | clear | water solubility (appearance of solution by the naked eyes) ([13]; concentration 10%): clear; water solubility (appearance of solution by the naked eyes) ([13]; concentration 20%): slightly turbid
2 | Nc1nc(S)cc(SCC2=C(C(=O)O)N3C(=O)[C@@H](NC(=O)[C@H](NC(=O)c4cnccc4O)c4ccccc4)[C@H]3SC2)n1 [Example 6] | 0.19 (≈ 0.304 µM) |  | 1.56 (≈ 2.49 µM) |  |  | 12.5 (≈ 20 µM) | 6.25 (≈ 9.99 µM) | 6.25 (≈ 9.99 µM) | 0.19 (≈ 0.304 µM) | 0.39 (≈ 0.623 µM) | 12.5 (≈ 20 µM) | 12.5 (≈ 20 µM) | 0.78 (≈ 1.25 µM) | 0.78 (≈ 1.25 µM) | 3.13 (≈ 5 µM) | 0.78 (≈ 1.25 µM) | 3.13 (≈ 5 µM) | 6.25 (≈ 9.99 µM) |  |  | MIC (proteus vulgaris OX 19US; Proteus vulgaris): 12.5 µg/mL (≈ 20 µM); MIC ([2]; pseudomonas aeruginosa ATCC 8689, read-out: MIC): 100 µg/mL (≈ 160 µM); MIC ([3]; pseudomonas aeruginosa 99 (Gentamycin resistant), read-out: MIC): 50 µg/mL (≈ 79.9 µM)
3 | Cc1c(S)sc(SCC2=C(C(=O)O)N3C(=O)[C@@H](NC(=O)[C@H](NC(=O)c4cnccc4O)c4ccccc4)[C@H]3SC2)c(C)c1=O [Example 3, 7-[D-α-(4-hydroxynicotinoylamido)-α-phenylacetamido]-3-(3,5-dimethyl-6-mercapto-4-oxo-4H-thiopyran-2-yl)thiomethyl-Δ^3-cephem-4-carboxylic acid] | 0.19 (≈ 0.283 µM) | 0.39 (≈ 0.581 µM) | 0.78 (≈ 1.16 µM) | 12.5 (≈ 18.6 µM) | 12.5 (≈ 18.6 µM) | 6.25 (≈ 9.32 µM) |  |  | 3.13 (≈ 4.67 µM) | 0.78 (≈ 1.16 µM) | 6.25 (≈ 9.32 µM) | 12.5 (≈ 18.6 µM) | 0.19 (≈ 0.283 µM) | 0.78 (≈ 1.16 µM) | 1.56 (≈ 2.33 µM) | 1.56 (≈ 2.33 µM) |  |  | clear | clear | MIC ([5]; Escherichia coli): 12.5 µg/mL (≈ 18.6 µM); MIC ([6]; Klebsiella pneumoniae): 12.5 µg/mL (≈ 18.6 µM); MIC ([12]; Staphylococcus): 6.25 µg/mL (≈ 9.32 µM); MIC (Staphylococcus Onuma; Staphylococcus): 12.5 µg/mL (≈ 18.6 µM); water solubility (appearance of solution by the naked eyes) ([13]; concentration 10%): clear; water solubility (appearance of solution by the naked eyes) ([13]; concentration 20%): clear

From patent publication US4036834A, “Derivatives of 7-(α-hydroxy-substituted pyridyl carboxamido-α p h Δ^3 -cephem-4-carboxylic acid” (Yamanouchi Pharmaceutical Co., Ltd., priority 1974, dated 1977)
